The numbers were not newly measured in patent publication US20160002278A1, “Pharmaceutical Compositions for Rectal Administration” (CIPLA LIMITED, priority 2013, published 2016), which cites them from elsewhere.

The conditions of data set [1]: animal study, distributed to other vital organs such as lungs.
For data set [2] the following is noted: oral administration.

`CCc1c(Cl)c(O)c(Cl)c(O)c1C(=O)O[C@H]1[C@H](O)[C@H](OC)[C@H](OC/C2=C\C=C\C[C@H](O)/C(C)=C/[C@H](CC)[C@@H](O[C@@H]3OC(C)(C)[C@@H](OC(=O)C(C)C)[C@H](O)[C@@H]3O)/C(C)=C/C(C)=C/C[C@@H]([C@@H](C)O)OC2=O)O[C@@H]1C` [Fidaxomicin]: the “organ findings after oral administration” value in data set [1] was “dark red discoloration of the lungs and lymph nodes”. The adverse effects entry in data set [2] was “hives, difficulty in breathing, swelling of face, lips, tongue or throat”. The bioavailability (after oral administration) is 1%. Moreover, where the note is “following oral (PO) administration”, the “absorption from the gastrointestinal tract” value was “minimally absorbed”.

The term bioavailability denotes dose-corrected exposure relative to a reference, in per cent.
